Source: patent US12653190B2, “Heteroaryl-triazole compounds as pesticides” (Bayer Aktiengesellschaft, priority 2020, dated 2026)

Tests used:
Assay type in all cases: in vivo
[1] = test system: larvae of the banded cucumber beetle (Diabrotica balteata); test: Diabrotica balteata spray test; conditions: 168 h, 100 g/ha (=32 μg/well), after 7 days, wheat seeds, read-out: efficacy (seedling growth)
Method: Diabrotica balteata—Spray Test
(§1) • Solvent: 78.0 parts by weight of acetone • 1.5 parts by weight of dimethylformamide • Emulsifier: alkylarylpolyglycol ether
(§2) To produce a suitable preparation of active compound, 1 part by weight of active compound is mixed with the stated amount of solvent, and the concentrate is diluted with water, containing an emulsifier concentration of 1000 ppm, to the desired concentration. Further test concentrations are prepared by dilution with emulsifier containing water.
Soaked wheat seeds (Triticum aestivum) are placed in a multiple well plate filled with agar and some water and are incubated for 1 day to germinate (5 seeds per well). The germinated wheat seeds are sprayed with a test solution containing the desired concentration of the active ingredient. Afterwards each unit is infected with 10-20 larvae of the banded cucumber beetle (Diabrotica balteata).
After 7 days efficacy in % is determined. 100% means all the seedlings have grown up like in the untreated, uninfected control; 0% means none of the seedlings have grown.

[2] = test system: fall armyworm larvae (Spodoptera frugiperda); test: Spodoptera frugiperda spray test; conditions: in Zea mays, 168 h
Method: Spodoptera frugiperda—Spray Test
(§3) • Solvent: 78.0 parts by weight acetone • 1.5 parts by weight dimethylformamide • Emulsifier: alkylarylpolyglycol ether
as §2, with “solvents” for “solvent,”, “and” for “and the concentrate”
Maize (Zea mays) leaf sections are sprayed with a preparation of the active ingredient of the desired concentration. Once dry, the leaf sections are infested with fall armyworm larvae (Spodoptera frugiperda). After 7 days mortality in % is determined. 100% means all caterpillars have been killed and 0% means none of the caterpillars have been killed.

[3] = test system: adult mosquitoes Aedes aegypti strain MONHEIM; test: Aedes aegypti test (AEDSAE surface treatment & contact assay); conditions: 24 hours after contact, read-out: efficacy (mortality); for mortality at 20 mg/m2: surface concentration 20 mg/m^2, 30 minutes exposure; for mortality at 4 mg/m2: surface concentration 4 mg/m^2, 30 minutes exposure
Method: Aedes aegypti Test (AEDSAE Surface Treatment & Contact Assay)
(§4) • Solvent: Aceton+2000 ppm rapeseed oil methyl ester (RME)
(§5) In order to produce a sufficient, active ingredient containing solution it is necessary to solve the test compound in the solvent-mix (acetone at 2 mg/ml/RME 2000 ppm). This solution is pipetted onto a glazed tile and after evaporation of the acetone, adult mosquitoes of the species Aedes aegypti strain MONHEIM are placed onto the dried surface. The exposure time is 30 minutes.
(§6) Mortality in percent (%) is determined 24 hours after contact of the insects to the treated surface. 100% mortality means that all tested insects are dead, whereas 0% means that no insect died.

[4] = test system: Rhipicephalus (Boophilus) microplus larvae (strain Parkhurst, resistant against synthetic pyrethroids); test: Rhipicephalus (Boophilus) microplus in-vitro contact test, larval cattle tick; conditions: 5 μg/cm^2 (=500 g/ha), after 48 hours, read-out: efficacy (larvae dead or moribund)
Method: Rhipicephalus (Boophilus) microplus—In-Vitro Contact Tests Larval Cattle Tick (Strain Parkhurst, Resistant Against Synthetic Pyrethroids)
9 mg compound is solved in 1 mL acetone and diluted with acetone to the desired concentration. 250 μL of the test solution is filled in 25 mL glass test tubes and homogeneously distributed on the inner walls by rotation and tilting on a shaking device (2 h at 30 rpm). With a compound concentration of 900 ppm, an inner surface of 44.7 cm^2 and a homogeneous distribution, a dose of 5 μg/cm^2 is achieved.
After the solvent has evaporated, each test tube is filled with 20-50 cattle tick larvae (Rhipicephalus microplus), closed with a perforated lid and incubated in a horizontal position at 85% relative humidity and 27° C. in an incubator. After 48 hours efficacy is determined. The larvae are patted on the ground of the tubes and negative geotactic behavior is recorded.
An efficacy of 100% means all larvae are dead or moribund; 0% means no larvae are dead or moribund.

[5] = test system: green peach aphid (Myzus persicae); test: Myzus persicae spray test; conditions: foliar, 120 h, after 5 days, Chinese cabbage leaf disks
Method: Myzus persicae—Spray Test
as §3
as §2, with “solvents” for “solvent,”, “and” for “and the concentrate”
Chinese cabbage (Brassica pekinensis) leaf disks infected with all instars of the green peach aphid (Myzus persicae), are sprayed with a preparation of the active ingredient of the desired concentration.
After 5 days mortality in % is determined. 100% means all aphids have been killed and 0% means none of the aphids have been killed.

[6] = test system: larvae of the southern green stink bug (Nezara viridula); test: Nezara viridula spray test; conditions: 96 h, after 4 days, barley plants
Method: Nezara viridula—Spray Test
as §1, §2
Barley plants (Hordeum vulgare) are sprayed with a test solution containing the desired concentration of the active ingredient and are infested with larvae of the southern green stink bug (Nezara viridula).
After 4 days mortality in % is determined. 100% means all the stink bugs have been killed; 0% means none of the stink bugs have been killed.

[7] = test system: adult engorged female ticks (Rhipicephalus microplus); test: Rhipicephalus (Boophilus) microplus injection test; conditions: 168 h, egg deposition monitored after 7 days, read-out: efficacy (infertile eggs); for pest or weed control at 4 µg/tick: 4 μg/tick injected; for pest or weed control at 20 µg/tick: 20 μg/tick injected
Method: Rhipicephalus (Boophilus) microplus—Iniectiontest
(§7) • Solvent: dimethyl sulfoxide
To produce a suitable preparation of active compound, 10 mg of active compound are dissolved in 0.5 mL solvent, and the concentrate is diluted with solvent to the desired concentration.
Five adult engorged female ticks (Rhipicephalus microplus) are injected with 1 μL compound solution into the abdomen. The ticks are transferred into replica plates and incubated in a climate chamber.
After 7 days egg deposition of fertile eggs is monitored. Eggs where fertility is not visible are stored in a climate chamber till hatching after about 42 days. An efficacy of 100% means all eggs are infertile; 0% means all eggs are fertile.

[8] = test system: adult unfed cat fleas (Ctenocephalides felis); test: Ctenocephalides felis oral test; conditions: 48 h, 100 ppm in cattle blood, after 2 days
Method: Ctenocephalides felis—Oral Test
as §7
To produce a suitable preparation of active compound, 10 mg of active compound are dissolved in 0.5 mL solvent, and the concentrate is diluted with cattle blood to the desired concentration.
Approximately 20 adult unfed cat fleas (Ctenocephalides felts) are placed in flea chambers. The blood chamber, sealed with parafilm on the bottom, are filled with cattle blood supplied with compound solution and placed on the gauze covered top of the flea chamber, so that the fleas are able to suck the blood. The blood chamber is heated to 37° C. whereas the flea chamber is kept at room temperature.
After 2 days mortality in % is determined. 100% means all the fleas have been killed; 0% means none of the fleas have been killed.

[9] = test system: adult mosquitoes Culex quinquefasciatus strain P00; test: Culex quinquefasciatus test (CULXFA surface treatment & contact assay); conditions: 24 hours after contact, read-out: efficacy (mortality); for mortality at 20 mg/m2: surface concentration 20 mg/m^2, 30 minutes exposure; for mortality at 4 mg/m2: surface concentration 4 mg/m^2, 30 minutes exposure
Method: Culex quinquefasciatus Test (CULXFA Surface Treatment & Contact Assay)
as §4
as §5, with “2 000” for “2000”, “Culex Quinquefasciatus” for “Aedes aegypti”, “P00” for “MONHEIM”, “minutes. Mortality in percent (%) is determined 24 hours after contact of the insects to the treated surface. 100% mortality means that all tested insects are dead, whereas 0% means that no insect died.” for “minutes.”

[10] = test system: adult flies Musca domestica strain WHO-N; test: Musca domestica test (MUSCDO surface treatment & contact assay); conditions: 24 hours after contact, read-out: efficacy (mortality); for mortality at 4 mg/m2: surface concentration 4 mg/m^2, 30 minutes exposure; for mortality at 20 mg/m2: surface concentration 20 mg/m^2, 30 minutes exposure
Method: Musca domestica Test (MUSCDO Surface Treatment & Contact Assay)
as §4
as §5, with “flies” for “mosquitoes”, “Musca domestica” for “Aedes aegypti”, “WHO-N” for “MONHEIM”
as §6

SMILES	pest or weed control at 32 µg/disc, 100 g/ha [1]	mortality at 100 g/ha [2]	pest or weed control at 5 µg/cm2, 5 µg/cm2 [4]	mortality at 100 g/ha [5]	mortality at 500 g/ha [6]	also measured
C[C@H](NC(=O)c1cc(Br)cc(C(F)(F)C2CC2)c1)c1ncnn1-c1ncc(C#N)s1 [Example I-53]	100%	100%	–	–	–	mortality at 20 mg/m2 [3]: 80 to 100%
C[C@H](NC(=O)c1cc(CC#N)cc(OC(F)(F)F)c1)c1ncnn1-c1ncc(C#N)s1 [Example I-54]	–	100%	90%	–	–	–
C[C@H](NC(=O)c1cc(OC(F)(F)F)cc(C(C)(C)C#N)c1)c1ncnn1-c1cnc(C#N)cn1 [Example I-56]	100%	100%	–	90%	100%	mortality at 100 g/ha [6]: 90%; mortality at 4 mg/m2 [3]: 80 to 100%; mortality at 20 mg/m2 [3]: 80 to 100%
C[C@H](NC(=O)c1cc(Cl)cc(Oc2ccccc2)c1)c1ncnn1-c1ccc(C#N)cn1 [Example I-7]	–	–	100%	–	–	pest or weed control at 4 µg/tick [7]: 100%; pest or weed control at 20 µg/tick [7]: 100%
CNC(=O)c1cnc(-n2ncnc2[C@H](C)NC(=O)c2cc(OC(F)(F)F)cc(C(C)(C)C#N)c2)s1 [Example I-74]	100%	100%	–	100%	100%	mortality at 100 g/ha [6]: 100%
C[C@H](NC(=O)c1cc(OC(F)(F)F)cc(C(C)(C)C#N)c1)c1ncnn1-c1ncc(C(=O)N(C)C)s1 [Example I-73]	100%	100%	–	100%	100%	–
C[C@H](NC(=O)c1cc(Br)cc(C=C(Cl)Cl)c1)c1ncnn1-c1ccc(C#N)cn1 [Example I-23]	–	–	–	–	–	pest or weed control at 4 µg/tick [7]: 100%; mortality at 100 ppm [8]: 100%
C[C@H](NC(=O)c1cc(Cl)cc(C(C)(C)C#N)c1)c1ncnn1-c1ncc(C#N)s1 [Example I-37]	100%	100%	–	90%	100%	mortality at 20 mg/m2 [9]: 80 to 100%
C[C@H](NC(=O)c1cc(Cl)cc(Cn2cc(C(F)(F)F)cn2)c1)c1ncnn1-c1ccc(C#N)cn1 [Example I-10]	–	–	–	–	–	pest or weed control at 4 µg/tick [7]: 100%; pest or weed control at 20 µg/tick [7]: 100%; mortality at 100 ppm [8]: 100%
Cc1nc([C@H](C)NC(=O)c2cc(Cl)cc(C(C)(C)C#N)c2)n(-c2ncc(C(=O)N(C)C)s2)n1 [Example I-40]	80%	100%	–	90%	–	–
C[C@H](NC(=O)c1cc(OC(F)(F)F)cc(C(C)(C)C#N)c1)c1ncnn1-c1ccc(C#N)cn1 [Example I-45]	100%	–	100%	90%	100%	mortality at 100 g/ha [6]: 100%; mortality at 4 mg/m2 [3]: 80 to 100%; mortality at 20 mg/m2 [3]: 80 to 100%; mortality at 4 mg/m2 [9]: 80 to 100%; mortality at 20 mg/m2 [9]: 80 to 100%; mortality at 4 mg/m2 [10]: 80 to 100%; mortality at 20 mg/m2 [10]: 80 to 100%
C[C@H](NC(=O)c1cc(OCC(Cl)=C(Cl)Cl)cc(C(F)(F)F)c1)c1ncnn1-c1ncc(C#N)s1 [Example I-28]	100%	100%	100%	–	–	pest or weed control at 4 µg/tick [7]: 100%
C[C@H](NC(=O)c1cc(OC(F)(F)F)cc(C(C)(C)C#N)c1)c1ncnn1-c1ncc(C#N)s1 [Example I-43, 3-(1-Cyano-1-methyl-ethyl)-N-[(1S)-1-[2-(5-cyanothiazol-2-yl)-1,2,4-triazol-3-yl]ethyl]-5-(trifluoromethoxy)benzamide]	100%	100%	–	100%	100%	mortality at 100 g/ha [6]: 100%; mortality at 4 mg/m2 [3]: 80 to 100%; mortality at 20 mg/m2 [3]: 80 to 100%; mortality at 4 mg/m2 [9]: 80 to 100%; mortality at 20 mg/m2 [9]: 80 to 100%; mortality at 4 mg/m2 [10]: 80 to 100%; mortality at 20 mg/m2 [10]: 80 to 100%
C[C@H](NC(=O)c1cc(OC2CC2)cc(OC(F)(F)F)c1)c1ncnn1-c1ncc(C#N)s1 [Example I-64]	100%	100%	–	–	100%	–
C[C@H](NC(=O)c1cc(Cl)cc(Oc2ccc(Cl)cc2)c1)c1ncnn1-c1ccc(C#N)cn1 [Example I-8]	–	–	–	–	–	pest or weed control at 4 µg/tick [7]: 80%; pest or weed control at 20 µg/tick [7]: 100%; mortality at 100 ppm [8]: 90%
C[C@H](NC(=O)c1cc(OCC=C(Cl)Cl)cc(C(F)(F)F)c1)c1ncnn1-c1ccc(C#N)cn1 [Example I-26]	100%	–	100%	–	–	–
CC(C)c1cc(C(=O)N[C@@H](C)c2ncnn2-c2ccc(C#N)cn2)cc(C(C)(C)C#N)c1 [Example I-48]	100%	83%	100%	–	–	–
C[C@H](NC(=O)c1cc(OC2CC2)cc(OC(F)(F)F)c1)c1nc(C2CC2)nn1-c1ncc(C#N)s1 [Example I-65]	–	–	100%	–	–	–
